Assay results: US9931313B2, “Methods of treating proliferative disorders with malate or derivatives thereof” (Beth Israel Deaconess Medical Center, Inc., priority 2012, dated 2018)

How the values were obtained:
A549 cells [1] = experiment: Cellular ROS by CM-H2DCFDA flow cytometry in A549 cells; type: cell-based, human; settings: for DMM-induced ROS production: 10 or 20 mM DMM with 20 mM NAC or 20 mM GSH
Description: (§1) Intracellular ROS production was measured by staining with CM-H2DCFDA. CM-H2DCFDA is a cell-permeant indicator for ROS that is nonfluorescent until removal of the acetate groups by intracellular esterases and oxidation occurs within the cell. The procedure for measuring ROS was carried out as described in Trachootham et al., in Cancer Cell. 10: 241-252 (2006), with minor modifications. Briefly, A549 cells transduced with shRNA lentiviral particles or control vector were selected with puromycin for 2 weeks, and then incubated with 5 μM CM-H2DCF-DA for 3 hours, followed by flow cytometry using a FACSCalibur equipped with CellQuest Pro software. Superoxide radicals (O2^−) were measured separately using the MitoSOX™ reagent according to the manufacturer's protocol (Invitrogen). In brief, cells with or without ME2 knockdown were incubated with 5 μM MitoSOX™ reagent for 10 minutes at 37° C., then washed three times and observed under a fluorescence microscope using the Rhodamine filter and Axiovision software for capturing images (Zeiss, Germany).

A549 cells [2] = experiment: Mitochondrial superoxide by MitoSOX Red in A549 cells; type: cell-based, human
Description: as §1
We measured the ROS source using MitoSOX™ Red, a reagent that selectively targeted to the mitochondria.

[3] = test system: normal human derived fibroblast (NHDF) and normal lung epithelial cells; experiment: ROS by CM-H2DCFDA in normal cells; type: cell-based; settings: 5, 10, 20 mM DMM
Description: (§2) A: Treatment with DMM induced ROS production in both normal human derived fibroblast (NHDF) and normal lung epithelial cells (Normal lung). ROS was detected by flow cytometry using indicator CM-H2DCFDA. Data are provided for the following curves (from left to right): 0, 5 mM, 10 mM, or 20 mM DMM. […] Cell death was analyzed by Annexin V reagent. Each histogram is representative of three experiments
as §1, with “Briefly, A549 cells transduced with shRNA lentiviral particles or control vector were selected with puromycin for 2 weeks, and then incubated with 5 μM CM-H2DCF-DA for 3 hours, followed by flow cytometry using a FACSCalibur equipped with CellQuest Pro software.” left out

A549 xenograft tumors = experiment: A549 xenograft in nude mice treated with DMM, cisplatin or both; type: in vivo, athymic nude mice
Description: Approximately 5×10^6 control pLKO cells were subcutaneously implanted into female athymic nude mice. Mice were treated with DMM, cisplatin (CP), a combination of cisplatin with DMM (CP+DMM), or control (PBS), as described herein. Tumor size was measured and calculated. B: Direct injection of DMM into xenograft tumors caused shrinkage and ulceration of tumors, as compared to control with PBS.
Animal experiments were performed under federal guidelines and approved by the Institutional Animal Care and Use Committee (IACUC) of the Beth Israel Deaconess Medical Center (Approval number 0342007). A549 xenografts in nude mice were generated by following the description of Verrax et al., in Biochem. Pharmacol. 72: 671-680 (2006). Briefly, approximately 10^7 ME2 deficient or control A549 cells resuspended in 200 μl of a serum-free culture medium/Matrigel mixture (1:1) were subcutaneously injected into the right and left flanks of male nude/nu/nu athymic mice, respectively. Tumor-bearing mice were sacrificed after 6-8 weeks and tumor masses were measured or imaged before excision. Tumor lysates were prepared by homogenization of tumor tissues in RIPA lysis buffer and were resolved by SDS-PAGE and transferred onto PDVF membranes and immunoblotted with anti-ME2 antibody and normalized by β-tubulin as a loading control.

Akt and PDK1 = experiment: Western blotting of Akt/PDK1 phosphorylation and differentiation marker in A549 cells; type: cell-based, human; settings: for DMM-induced differentiation / basal Akt activity in DMM-treated A549 cells: DMM in combination with NAC or GSH; for basal Akt activity in DMM-treated A549 cells: p-AKT473
Description: A549 cells with and without ME2 knockdown were lysed with RIPA buffer (50 mM Tris-HCl, pH 7.4, 150 mM NaCl, 1% NP-40, 0.1% SDS and 0.5% sodium deoxycholate), and equal amount of proteins were resolved by 4%-12% Bis-Tris gels (Invitrogen), as previously described in Ren et al., Proc. Natl Acad. Sci. USA 104: 10465-10469 (2007). Briefly, the proteins were transferred to a PVDF membrane, and membranes were blocked with BLOTTO (5% nonfat dry milk and 0.1% Tween 20 in PBS), and incubated with antisera generated against ME2, phospho-AKT380, phosphor-473, AKT1/2, phosphor-ERK1/2, ERK1, vimentin, GATA-1 or β-tubulin antibodies, respectively. Membranes were washed in PBS plus 0.1% Tween 20 and probed with anti-rabbit or anti-mouse HRP-conjugated secondary antibody (both at 1:10,000 dilution), and proteins were detected using the ECL Plus chemiluminescence detection reagent (Amersham Biosciences).

A549 cells [4] = experiment: Proliferation assay of A549 cells treated with DMM; type: cell-based, human
Description: Control and ME2 deficient cell lines were plated in 6-well plate at a density of 1×10^5 cells/well and maintained at 37° C. in a 5% CO2 incubator. After 24, 72, 120 and 168 hours of initial plating, 0.5 ml cells were diluted into 10 ml of Hanks' buffer and counted by Coulter counter. All samples were assayed in triplicate to generate proliferation curves, as described in Benson et al., Nature 441: 451-456 (2006). For the clonogenic assay, A549 with stably expression ME2 knockdown and control shRNA cells were seeded in a 6-well plate at a density of 200 cells per well. Colonies were fixed with 10% formaldehyde for 5 min and stained with 0.5% crystal violet for 30 min and counted with NIH image software.
To test whether malate accumulation may damage mitochondrial function and further inhibit cell growth, an exogenous form of malate was delivered in vitro. Exogenous malate may mimic the phenotype-induced by ME2 knockdown. Therefore, we supplemented exogenous cell-permeable malate (Heart et al., Am. J. Physiol. 296: E1354-1362 (2009)) in A549 cell growth media and compared the phenotype with ME2 knockdown cells. DMM, being cell permeable, was used as an exogenous substitute for malate.

[5] = test system: normal human derived fibroblast (NHDF) and normal lung epithelial cells; experiment: Cell death by Annexin V in normal cells; type: cell-based
Description: as §2
(§3) Apoptosis was measured by staining with the Nexin reagent using a Nexin kit and counting on the Guava PCA-96 system (Guava Technologies) as per the manufacture's protocol. Briefly, cells were harvested and re-suspended in 100 μl of 1× Nexin buffer, and then mixed with 100 μl of Annexin-V-PE, and Nexin 7-AAD. The cells were allowed to incubate for 20 minutes at room temperature and analyzed in the Guava flow cytometer.

ME2-C = molecular target: T1, ME2-C (Homo sapiens, UniProt P23368); experiment: In vitro activity of modified ME2 (ME2-C), absorbance at 340 nm; type: biochemical; settings: 5, 15 and 45 mM DMM; 15 mM L-malate, 1 mM NAD+, 60 nM ME2-C, 37° C.
T1 construct: His tag (C); FLAG tag (cleavable) (C); made in house; host or cells: E. coli BL21(DE3)
Description: Modified ME2 is a recombinant ME2 protein having a C-terminus His tag and lacking the mitochondrial targeting sequence (ME2-C) was prepared, as described in Loeber et al., J. Biol. Chem. 266:3016-3021 (1991). The 200 μl assay mixture contained 30 mM of Tris-HCl (pH 7.4), 15 mM of L-malate (pH 7.4), 1 mM of NAD^+, 2 mM of MnCl2, and 60 nM of ME2-C. Different concentrations of DMM (pH 7.4) were tested, namely 5, 15 and 45 mM. The absorbance of the solution at 340 nm was monitored continuously with a Beckman Coulter DTX 880 multimode spectrophotometer at 37° C.
To further determine compounds that can be used to inhibit ME2 and/or increase intracellular malate, or a derivative thereof, an ME2 assay was established. Accordingly, a modified ME2 protein was constructed using a human ME2 expression vector and a bacterial expression system (E. coli BL21(DE3)) with a cleavable FLAG tag. Both N- and C-terminal constructs were assessed for protein production, and the mitochondrial targeting sequence was deleted in the constructs, as described in Loeber et al., J. Biol. Chem. 266:3016-3021 (1991), which is incorporated herein by reference. Kinetic experiments were performed with C-terminal tagged ME2 (ME2-C) and with an assay mixture containing 30 mM of Tris-HCl (pH 7.4), 15 mM of L-malate (pH 7.4), 1 mM of NAD+, 2 mM of MnCl2, and 60 nM of ME2-C. […]

A549 cells [6] = experiment: Annexin-V apoptosis / cell death assay in A549 cells; type: cell-based, human; settings: for DMM-induced cell death: DMM with NAC or GSH
Description: as §3

A549 cells [7] = experiment: Survival of A549 cells in Hams/F12 medium without glucose, pyruvate and glutamine; type: cell-based, human; settings: control and ME2 knockdown A549 cells, medium without pyruvate, glutamine
Description: A549 control or ME2 knockdown cells were grown in Hams/F12 based medium without glucose, pyruvate and glutamine. Different concentrations of glutamine were supplemented as indicated. The alive cells were stained with Nexin/7-ADD and analyzed by FACS. B: Exogenous supplementation of pyruvate can rescue ME2 depletion induced cell death. A549 control or ME2 knockdown cells were grown in Hams/F12 based medium without glucose, pyruvate and glutamine. Different concentrations of pyruvate were supplemented as indicated. The alive cells were stained with Nexin/7-ADD and analyzed by FACS. C and D: The effect of ME2 knockdown on de novo synthesis of PC is greater with ^13C6-Glc than with ^13C5, 1^5N2-Gln as tracer, as analyzed by FT-ICR-MS. E: Inhibition of ^13C3-citrate synthesis from ^13C6-Glc by ME2 knockdown, as determined by GC-MS. […] G and H: Effects of ME2 knockdown on the levels and fractional distribution of ^13C isotopologues of malate, as analyzed by GC-MS; rectangles depict ^13C2- (m2) and ^13C3-malate (m3) species as markers of the first turn of the Krebs cycle without and with pyruvate carboxylation input, respectively. […]

[8] = direct intratumoral injection, vs PBS

T1 sequence (P23368 19-584): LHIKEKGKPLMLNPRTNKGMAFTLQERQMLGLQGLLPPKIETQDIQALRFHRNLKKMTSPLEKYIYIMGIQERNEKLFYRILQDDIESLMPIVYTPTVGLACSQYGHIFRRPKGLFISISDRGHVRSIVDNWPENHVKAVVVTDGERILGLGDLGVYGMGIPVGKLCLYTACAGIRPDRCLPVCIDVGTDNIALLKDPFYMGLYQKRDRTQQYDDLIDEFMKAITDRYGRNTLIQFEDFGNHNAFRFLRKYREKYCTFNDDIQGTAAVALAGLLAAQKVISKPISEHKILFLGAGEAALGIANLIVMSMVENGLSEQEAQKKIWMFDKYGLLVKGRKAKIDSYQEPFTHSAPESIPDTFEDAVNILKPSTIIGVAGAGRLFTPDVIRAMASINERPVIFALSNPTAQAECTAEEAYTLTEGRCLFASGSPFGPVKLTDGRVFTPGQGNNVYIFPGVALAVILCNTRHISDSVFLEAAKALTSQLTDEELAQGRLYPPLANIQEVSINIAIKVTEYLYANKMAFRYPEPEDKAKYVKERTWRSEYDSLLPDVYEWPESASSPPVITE

SMILES: COC(=O)CC(O)C(=O)OC (centres unmarked) [DMM, dimethyl malate]
- time course of DMM-induced ROS production (A549 cells [1]; 3 h to 3 days): time-dependent
- ROS production (CM-H2DCFDA) (A549 cells [1]; A549 cells, exogenous DMM 5, 10, 20 mM): enhanced production of ROS
- superoxide (MitoSOX Red) (A549 cells [2]; 20 mM DMM for four days): increased presence of superoxide
- ROS production in normal cell lines [3]: enhanced ROS production
- A549 tumor growth in vivo (A549 xenograft tumors; 0.5 g/kg of DMM): significantly inhibited
- tumor size after direct injection into A549 xenograft tumors (A549 xenograft tumors; [8]): decreases in tumor size
- tumor tissue appearance after direct injection into A549 xenograft tumors (A549 xenograft tumors; [8]): ulceration of the tumor tissue
- E-cadherin expression (Akt and PDK1; A549 cells in vitro): increased
- basal Akt and PDK1 activity (Akt and PDK1; A549 cells in vitro, p-AKT473 and p-PDK1): inhibited
- proliferation of A549 cells (A549 cells [4]; 10 and 20 mM DMM, control (pLKO) and ME2 knockdown (shME2-3) A549 cells): significantly inhibited
- sensitivity of ME2 knockdown cells to DMM treatment compared to control cancer cells (A549 cells [4]; shME2-3 vs pLKO A549 cells): more sensitive
- cell death in normal cell lines [5]: not in the normal cell lines
- activity of ME2-C (ME2-C): decreased the activity
- mode of cell death induced by DMM (annexin V assay) (A549 cells [6]; A549 cells): induced necrosis in A549 cells rather than apoptosis
- cell death in A549 cancer cell (A549 cells [6]; compared with normal cell lines): selectively induced cell death

SMILES: N[C@@H](CCC(=O)N[C@@H](CS)C(=O)NCC(=O)O)C(=O)O [GSH, reduced glutathione]
- DMM-induced ROS production (A549 cells [1]): inhibited
- DMM-induced differentiation (Akt and PDK1): reversed the DMM-induced differentiation
- basal Akt activity in DMM-treated A549 cells (Akt and PDK1): rescued basal Akt activity
- DMM-induced cell death (A549 cells [6]): almost completely inhibited

SMILES: CC(=O)N[C@@H](CS)C(=O)O [NAC, N-acetyl-cysteine]
- DMM-induced ROS production (A549 cells [1]): inhibited
- superoxide production in DMM-treated cells (A549 cells [2]; DMM together with 20 mM NAC): decreased levels of superoxide production
- DMM-induced differentiation (Akt and PDK1): reversed the DMM-induced differentiation
- basal Akt activity in DMM-treated A549 cells (Akt and PDK1): rescued basal Akt activity
- DMM-induced cell death (A549 cells [6]): almost completely inhibited
- cell death induced by ME2 knockdown, rescue by antioxidant (A549 cells [6]; ME2 depleted cells): failed to rescue

SMILES: NC(=O)CC[C@H](N)C(=O)O [glutamine]
- rescue of cell survival by supplementation (A549 cells [7]): rescued control cells more than ME2 knockdown cells
